Results taken from patent US20110098177A1, “METHODS AND COMPOSITIONS OF PLANT MICRONUTRIENTS” (NOVUS INTERNATIONAL INC., priority 2006, published 2011).
“Also recorded” adds a separate entry of the source.

Tests used:
Format in all cases: in vivo
Aristotle bell pepper = details: in vivo
Experimental: (§1) The following experiments were performed in a green house during the fall of 2007 at GCREC, Balm, University of Florida. Fifteen products, at 3 different application rates were examined. The plot size was 2-gallon pots. Crop set-up, procedures and variables were as follows.
(§2) Transplants of ‘Florida-47’ tomato and ‘Aristotle’ bell pepper plants in the 4-true leaf stage (about 6 inches tall) were planted in 2-gal pots on Aug. 27, 2007. Pots were filled with a commercially available planting medium. This medium was selected based on the mineral composition of the products to be applied without providing significant nutritional inputs to the crops. Irrigation was provided with drip lines delivering between 0.50 and 0.33 gal/day/pot for tomato and bell pepper, respectively, and the crops were irrigated three times per day. No foliar pesticides were necessary.
(§3) There were four control treatments corresponding to each target micronutrient in which non-Fe, non-Mn, non-Zn or non-Cu pots received all other essential nutrients under non-limiting conditions.
(§4) Treatments were applied at three rates (high, medium and low) obtained from the estimated concentration of Zn, Fe, Cu, and Mn foliarly-applied in tomato and bell pepper in field situations (Table 1). Products were weighed and dissolved in 200 ml of deionized water with a non-ionic surfactant and applied to the newly-matured open leaves of each crop at 3 and 7 weeks after transplant (WAT). Treated pots were isolated during application to avoid cross-contamination of other treatments.
(§5) Medium nutrient concentration was determined 1 week before treatment. The mineral composition of the medium was 26.8 ppm NH4—N, 49 ppm NO3—N, 15.8 ppm P, 91.2 ppm K, 82.3 ppm Ca, 58.2 ppm Mg, 23.9 ppm Na, 125.6 ppm S, 1.33 ppm Fe, 0.39 ppm Mn, 0.35 ppm Zn, 0.05 pp, Cu, 0.04 ppm B, 0 ppm Mo, 0.73 ppm Al, and 12.1 ppm Si. The pH of the medium was 5.36 and the electric conductivity was 1.38 mS/cm. The foliar tissue analysis was performed at 6 WAT and the concentration of N, P, K, Mg, Ca, S, B, Zn, Mn, Fe, and Cu was determined by a commercial laboratory. Plant toxicity was determined at 4 WAT by using a 0-10 visual scale, where 0=no visible damage and 10=total plant death. Marketable fruit weight was collected 2 times in bell pepper and 4 times in tomato following USDA standards.
(§6) Data were analyzed using a general linear model, and means were separated using orthogonal contrasts at the 5% significance level.

Florida-47 tomato = details: in vivo
Experimental: as §1, §2, §3, §4, §5, §6

Tygress tomato plants [1] = assay: Foliar nutrient concentration 2 weeks after treatment, greenhouse tomato (Examples 4-6)
Experimental: (§7) The following experiments were performed in a green house during the fall of 2008 and spring of 2009 at GCREC, Balm, University of Florida. Crop set-up, procedures and variables were as follows.
(§8) Transplants of Tygress' tomato plants were planted in 2-gallon pots filled with commercial planting medium with nutrient concentration of Fe, Zn, Mn, Cu being negligible and insufficient for crop growth. Irrigation and non-micronutrient fertilizer were provided daily through microsprinklers at recommended rates for tomato production in Florida. No pesticides were used. Treatments were as described in Tables 4, 5 and 6 below.
(§9) Treatments were applied at 5 WAT (weeks after transplanting) using a water volume of 200 mL/plant. A non-ionic surfactant was added. Foliar tissue analysis was performed at 3 and 7 WAT on the non-applied newest leaves. The concentrations of N, P, K, Mg, Ca, B, Zn, Mn, Fe, and Cu in the foliar tissue were determined from foliar analysis by a commercial laboratory at 2 weeks before treatment and again at 2 weeks after treatment.
(§10) Deionized water was used for foliar applications, and other nutrients were applied as appropriate under non-limiting conditions. Marketable fruit were collected three times during the growing season, starting at 10 WAT (5 weeks after the initial treatment). Tomato fruit was graded as extra-large, large and medium. Non-marketable fruit were harvested and number and weight recorded but not sized.
(§11) Experimental design was a randomized complete block design with 6 replications. Data were analyzed using a general linear model, and means were separated using an LSD test at the 5% significance level.

Tygress tomato plants [2] = assay: Yields of tomato fruits, greenhouse (Examples 4-6)
Experimental: as §7, §8, §9, §10, §11

Tygress tomato plants [3] = assay: Foliar nutrient concentration at 6 WAT, open-field tomato (Examples 7-10)
Experimental: (§12) The following experiments were performed in open-field plots during the spring of 2008 at GCREC, Balm, University of Florida. Four products delivering Zn (BIOX-Z), Mn (BIOX-M), Cu (BIOX-Cu), and Fe (BIOX-Fe) were compared to other micronutrient supplement formulations in tomato and bell pepper plants.
(§13) The plot sizes for the tomato plants were 30-ft plots (15 plants per plot) and 15-ft plots were used for the bell pepper plants (30 plants per plot). Crop set-up, procedures and variables were as follows.
(§14) Transplants of ‘Tygress’ tomato plants and ‘Patriot’ bell pepper plants in the 4-true leaf stage (about 6 inches tall) were planted in raised beds in open-field plots. The cross-section of each raised bed was 28 inches wide at the top, 32 inches wide at the base, and 8 inches tall. Irrigation and non-micronutrient fertilizer were provided daily through two drip lines per bed (0.45 gal/100 ft bed/min) at recommended rates for tomato and bell pepper production in Florida. […] The height of the plants for each of the treatment groups was measured at 3 weeks after transplantation (WAT), just prior to treatment with the experimental foliar fertilizers.
(§15) All foliar fertilizers except BIOX-CM were applied to the various treatment groups at 3 weeks after transplantation (WAT) and again at 5 WAT. The BIOX-CM treatment was applied at 4 and 5 WAT. The working water volume was 60 gal/acre and a non-ionic surfactant (Ad-Spray 80) was added in the amount of 2 pints/100 gal water. All plots were sprayed with sprayers pressurized at 25 psi and the canopies of both crops were covered with the micronutrient solutions. Treated plots were isolated during foliar fertilizer application to avoid the cross-contamination of other treatments on adjoining plots.
(§16) Leaf samples were collected from the most recent mature leaves from each plant at 6 WAT (2 weeks after initial treatment). Foliar tissue analysis was performed by a commercial laboratory to determine the concentration of N, P, K, Mg, Ca, B, Zn, Mn, Fe, and Cu. Tomato marketable fruit weights were collected at 10 and 12 WAT, and the fruits were graded according to USDA standards. Pepper marketable fruit weights were determined beginning at 5 WAT over 5 weekly harvests. Fruit mineral analysis (N, P, K, Mg, Ca, B, Zn, Mn, Fe, and Cu) was performed on samples from the tomato harvest.
(§17) The experimental design was a randomized complete block design with 5 replications for each treatment. All comparison data were analyzed using a general linear model and the means of each treatment were separated with a Fisher's protected LSD test at the 5% significance level.

[4] = system: Patriot bell pepper plants; assay: Foliar nutrient concentration at 6 WAT, open-field bell pepper (Examples 7-10)
Experimental: as §12, §13, §14, §15, §16, §17

Tygress tomato plants [5] = assay: Marketable yield, open-field tomato (Examples 7-10)
Experimental: as §12, §13, §14, §15, §16, §17

[6] = system: Patriot bell pepper plants; assay: Marketable yield, open-field bell pepper (Examples 7-10)
Experimental: as §12, §13, §14, §15, §16, §17

Tygress tomato plants [7] = assay: Nutrient concentration of tomato fruits at 10 WAT, open field (Examples 7-10)
Experimental: as §12, §13, §14, §15, §16, §17

[8] = Mn 2.0 lb/acre, 2 weeks after Mn treatment
[9] = 6 WAT, open field, product rate as Table 17
[10] = open field, lb/acre/season: BIOX-Z 1.3, Cu 6.7, M 23.0, Fe 3.2, INC 4.0, INZ 0.6, CM 10.0, GZ 1.0, GF 4.0, EDZ 1.4, EDM 23.0
[11] = 10 WAT, open field, product rate as Table 17

O=S(=O)([O-])[O-].[Zn+2] [BIOX-INZ, zinc sulfate]
Pepper toxicity (Aristotle bell pepper): 0
Tomato toxicity (Florida-47 tomato): 0
B concentration in tomato leaves (Tygress tomato plants [1]; in vivo): 24 ppm
Cu concentration in tomato leaves (Tygress tomato plants [1]; in vivo): 5 ppm
Fe concentration in tomato leaves (Tygress tomato plants [1]; in vivo): 97 ppm
Foliar Zn concentration (Tygress tomato plants [1]; in vivo): 768 a ppm
K concentration in tomato leaves (Tygress tomato plants [1]; in vivo): 3.5%
Mg concentration in tomato leaves (Tygress tomato plants [1]; in vivo): 0.3%
Mn concentration in tomato leaves (Tygress tomato plants [1]; in vivo): 55 ppm
N concentration in tomato leaves (Tygress tomato plants [1]; in vivo): 3.6%
P concentration in tomato leaves (Tygress tomato plants [1]; in vivo): 0.4%
Marketable yield (Tygress tomato plants [2]; in vivo): 3.7 a lb/plant
Foliar B concentration of tomato plants (Tygress tomato plants [3]; in vivo): 41 ppm
Foliar Cu concentration of tomato plants (Tygress tomato plants [3]; in vivo): 358 ppm
Foliar Fe concentration of tomato plants (Tygress tomato plants [3]; in vivo): 71 ppm
Foliar K concentration of tomato plants (Tygress tomato plants [3]; in vivo): 5.7%
Foliar Mg concentration of tomato plants (Tygress tomato plants [3]; in vivo): 0.58%
Foliar Mn concentration of tomato plants (Tygress tomato plants [3]; in vivo): 231 ppm
Foliar N concentration of tomato plants (Tygress tomato plants [3]; in vivo): 4.8%
Foliar P concentration of tomato plants (Tygress tomato plants [3]; in vivo): 0.18%
Foliar Zn concentration of tomato plants (Tygress tomato plants [3]; in vivo): 323 ab ppm
Foliar Zn concentration of tomato plants, statement (Tygress tomato plants [3]; in vivo): highest foliar concentration of Zn
Foliar B concentration of bell pepper plants ([4]; in vivo): 57 ppm
Foliar Cu concentration of bell pepper plants ([4]; in vivo): 385 ppm
Foliar Fe concentration of bell pepper plants ([4]; in vivo): 116 ppm
Foliar K concentration of bell pepper plants ([4]; in vivo): 3.2%
Foliar Mg concentration of bell pepper plants ([4]; in vivo): 0.53%
Foliar Mn concentration of bell pepper plants ([4]; in vivo): 303 ppm
Foliar N concentration of bell pepper plants ([4]; in vivo): 3.9%
Foliar P concentration of bell pepper plants ([4]; in vivo): 0.22%
Foliar Zn concentration of bell pepper plants ([4]; in vivo): 64 b ppm
Marketable yield, Tomato (Tygress tomato plants [5]; in vivo): 15.6 ton/acre
Marketable yield, Bell Pepper ([6]; in vivo): 6.9 ton/acre
B concentration of tomato fruits (Tygress tomato plants [7]; in vivo): 21 ppm
Cu concentration of tomato fruits (Tygress tomato plants [7]; in vivo): 21 ppm
Fe concentration of tomato fruits (Tygress tomato plants [7]; in vivo): 85 ppm
K concentration of tomato fruits (Tygress tomato plants [7]; in vivo): 7.5%
Mg concentration of tomato fruits (Tygress tomato plants [7]; in vivo): 0.34%
Mn concentration of tomato fruits (Tygress tomato plants [7]; in vivo): 38 ppm
N concentration of tomato fruits (Tygress tomato plants [7]; in vivo): 4.2%
P concentration of tomato fruits (Tygress tomato plants [7]; in vivo): 0.59%
Zn concentration of tomato fruits (Tygress tomato plants [7]; in vivo): 496 ppm

EDTA chelated manganese [BIOX-EDM]
B concentration in tomato leaves (Tygress tomato plants [1]; [8]): 22 ppm
Ca concentration in tomato leaves (Tygress tomato plants [1]; [8]): 0.6%
Cu concentration in tomato leaves (Tygress tomato plants [1]; [8]): 5 ppm
Fe concentration in tomato leaves (Tygress tomato plants [1]; [8]): 115 ppm
K concentration in tomato leaves (Tygress tomato plants [1]; [8]): 3.3%
Mg concentration in tomato leaves (Tygress tomato plants [1]; [8]): 0.3%
N concentration in tomato leaves (Tygress tomato plants [1]; [8]): 3.3%
P concentration in tomato leaves (Tygress tomato plants [1]; [8]): 0.5%
Zn concentration in tomato leaves (Tygress tomato plants [1]; [8]): 32 ppm
Foliar Mn concentration (Tygress tomato plants [1]; Mn 2.0 lb/acre, tomato leaves 2 weeks after Mn treatment): 78.5 a ppm
Marketable tomato yield compared with non-treated control (in words) (Tygress tomato plants [2]; BIOX-M at 1.23 lb/acre or more, BIOX-EDM at 2.0 lb/acre, Mn-sulfate at 1.0 lb/acre): significantly higher than the non-treated control
Marketable yield (Tygress tomato plants [2]; Mn 2.0 lb/acre, tomato fruits): 4.4 a lb/plant
Foliar Zn concentration of tomato plants, statement (Tygress tomato plants [3]; 6 WAT, open field): significant increase
Foliar concentration of K of tomato plants compared to control, statement (Tygress tomato plants [3]; 6 WAT, open field): significant increase
Foliar concentration of Mn of tomato plants, statement (Tygress tomato plants [3]; 6 WAT, open field): significant increase
Foliar concentration of P of tomato plants compared to control, statement (Tygress tomato plants [3]; 6 WAT, open field): significant decrease
Foliar B concentration of tomato plants (Tygress tomato plants [3]; [9]): 60 ppm
Foliar Ca concentration of tomato plants (Tygress tomato plants [3]; [9]): 2.2%
Foliar Cu concentration of tomato plants (Tygress tomato plants [3]; [9]): 409 ppm
Foliar Fe concentration of tomato plants (Tygress tomato plants [3]; [9]): 100 ppm
Foliar K concentration of tomato plants (Tygress tomato plants [3]; [9]): 6.2 a %
Foliar Mg concentration of tomato plants (Tygress tomato plants [3]; [9]): 0.82%
Foliar Mn concentration of tomato plants (Tygress tomato plants [3]; [9]): 348 b ppm
Foliar N concentration of tomato plants (Tygress tomato plants [3]; [9]): 4.9%
Foliar P concentration of tomato plants (Tygress tomato plants [3]; [9]): 0.22 ab %
Foliar Zn concentration of tomato plants (Tygress tomato plants [3]; [9]): 333 a ppm
Foliar B concentration of bell pepper plants [4, 9]: 64 ppm
Foliar Ca concentration of bell pepper plants [4, 9]: 4.4%
Foliar Cu concentration of bell pepper plants [4, 9]: 411 ppm
Foliar Fe concentration of bell pepper plants [4, 9]: 138 ppm
Foliar K concentration of bell pepper plants [4, 9]: 3.6%
Foliar Mg concentration of bell pepper plants [4, 9]: 0.52%
Foliar Mn concentration of bell pepper plants [4, 9]: 563 ppm
Foliar N concentration of bell pepper plants [4, 9]: 4.4%
Foliar P concentration of bell pepper plants [4, 9]: 0.28%
Foliar Zn concentration of bell pepper plants [4, 9]: 67 ppm
Marketable yield, Tomato (Tygress tomato plants [5]; [10]): 14.6 b ton/acre
Marketable yield, Bell Pepper [6, 10]: 7.6 ton/acre
Nutrient concentrations in tomato fruits, statement (Tygress tomato plants [7]; 10 WAT, open field): significant increases in micronutrient concentrations of Zn, Mn, Fe, and Cu; also recorded: highest Mn concentration in the resulting tomato fruit
B concentration of tomato fruits (Tygress tomato plants [7]; [11]): 24 ppm
Ca concentration of tomato fruits (Tygress tomato plants [7]; [11]): 0.2%
Cu concentration of tomato fruits (Tygress tomato plants [7]; [11]): 27 a ppm
Fe concentration of tomato fruits (Tygress tomato plants [7]; [11]): 110 a ppm
K concentration of tomato fruits (Tygress tomato plants [7]; [11]): 8.6%
Mg concentration of tomato fruits (Tygress tomato plants [7]; [11]): 0.39%
Mn concentration of tomato fruits (Tygress tomato plants [7]; [11]): 60 a ppm
N concentration of tomato fruits (Tygress tomato plants [7]; [11]): 4.3%
P concentration of tomato fruits (Tygress tomato plants [7]; [11]): 0.63%
Zn concentration of tomato fruits (Tygress tomato plants [7]; [11]): 939 a ppm
